{"source": "BindingDB's records for doi:10.7270/Q2M61HPT", "about": "(Nmmlsc, 2008)", "note": "pEC50: −log10 of the molar value."}
{"molecular_target": "Glutathione S-transferase class-mu 26 kDa isozyme (Schistosoma japonicum, UniProt P08515)", "sequence (P08515 2-218 limits assumed)": "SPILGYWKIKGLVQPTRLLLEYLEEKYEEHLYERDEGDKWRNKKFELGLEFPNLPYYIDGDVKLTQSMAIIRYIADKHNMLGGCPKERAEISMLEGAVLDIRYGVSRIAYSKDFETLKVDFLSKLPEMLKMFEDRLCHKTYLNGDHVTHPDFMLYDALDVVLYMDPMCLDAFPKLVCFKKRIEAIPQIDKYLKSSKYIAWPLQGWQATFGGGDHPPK", "experiment": "GST–glutathione interaction disruption – biochemical, multiplex beads, flow cytometry, HPSMTB buffer, profiling panel (AID 1324)"}
{"compound": "COc1cccc(CN=Nc2nn3cnnc3c3ccccc23)c1", "note": "[N-[1-(3-Methoxy-phenyl)-meth-(E)-ylidene]-N'-[1,2,4]triazolo[3,4-a]phthalazin-6-yl-hydrazine]", "pEC50": 5.14}
{"compound": "COc1cc(CN=Nc2nn3cnnc3c3ccccc23)ccc1O", "note": "[(4E)-2-methoxy-4-[[2-([1,2,4]triazolo[3,4-a]phthalazin-6-yl)hydrazinyl]methylidene]cyclohexa-2,5-dien-1-one]", "pEC50": 5.63}
{"compound": "CN(C)[C@@H]1C(=O)C(C(=O)NCN2CCCC2)C(=O)[C@@]2(O)C(=O)C3C(=O)c4c(O)cccc4[C@@](C)(O)C3CC12", "note": "(stereo partly drawn) [(2Z,4S,6S,12aS)-4-(dimethylamino)-6,10,11,12a-tetrahydroxy-2-[hydroxy-(1-pyrrolidinylmethylamino)methylidene]-6-methyl-4,4a,5,5a-tetrahydrotetracene-1,3,12-trione]", "pEC50": 4.67}
{"compound": "O=[N+]([O-])c1ccc(N=NCc2ccc(O)c(O)c2O)c(S(=O)(=O)N2CCOCC2)c1", "note": "[MLS000336720]", "pEC50": 4.62}
